From ChEMBL document CHEMBL1137777, “Design, synthesis, and evaluation of indolinones as triple angiokinase inhibitors and the discovery of a highly specific 6-methoxycarbonyl-substituted indolinone (BIBF 1120)” (J Med Chem, 2009) come the findings set out here.

Data set [1] concerns the target Cyclin-dependent kinase 1 (Homo sapiens, UniProt P06493). The data set is described as follows: Inhibition of human CDK1.
Data set [2] has as its system FaDu. The data set is described as follows: Antiangiogenic activity against human FADU cells assessed as inhibition of cell proliferation by [3H]thymidine incorporation assay. It is filed as functional, cell-based.
Data set [3] concerns the target Serine/threonine-protein kinase PLK1 (Homo sapiens, UniProt P53350). The data set is described as follows: Inhibition of human Plk1.
Data set [4] deals with Vascular endothelial growth factor receptor 1 (Homo sapiens, UniProt P17948).
Description: Inhibition of human VEGFR1
Data set [5] has as its system FaDu. The data set can be described thus: Antitumor activity against human FADU cells xenografted NMRI nu/nu mouse assessed as inhibition of mean tumor volume growth at 50 mg/kg, po qd after 21 days relative to control. It is filed as functional.
Data set [6] in a line: Plasma concentration in NMRI nu/nu mouse at 40 mg/kg, po administered as single dose after 2 hrs. It is filed as ADME, organism-based. Details: dose 40 mg/kg, route oral.
In a further data set the test system is HUVEC. The data set is described as follows: cells. The settings on record: Homo sapiens, 3 h.
In data set [7] the test system is FaDu. The data set is described as follows: Antitumor activity against human FADU cells xenografted NMRI nu/nu mouse assessed as inhibition of mean tumor volume growth at 50 mg/kg, po bid after 21 days relative to control. It is filed as functional.
For data set [8], the target named is Epidermal growth factor receptor (Homo sapiens, UniProt P00533). The data set can be described thus: Inhibition of human EGFR.
Data set [9] in a line: Plasma concentration in NMRI nu/nu mouse at 40 mg/kg, po administered as single dose after 24 hrs. Type of data set: ADME, organism-based. Also on record: dose 40 mg/kg, route oral.
The test system of data set [10] is FaDu. The data set is described as follows: Antitumor activity against human FADU cells xenografted NMRI nu/nu mouse assessed as inhibition of mean tumor volume growth at 100 mg/kg, po qd after 21 days relative to control. It is filed as functional.
The subject of a further data set is HeLa. The data set is described as follows: Antiangiogenic activity against human HeLa cells assessed as inhibition of cell proliferation by [3H]thymidine incorporation assay. Type of data set: functional, cell-based.
In data set [11] the target is Insulin-like growth factor 1 receptor (Homo sapiens, UniProt P08069). The data set is described as follows: Inhibition of human IGFR1.
The target in data set [12] is Vascular endothelial growth factor receptor 2 (Homo sapiens, UniProt P35968). The data set is described as follows: Inhibition of human VEGFR2 expressed in Sf9 cells.
In data set [13] the target is Receptor tyrosine-protein kinase erbB-2 (Homo sapiens, UniProt P04626). The data set can be described thus: Inhibition of human HER2.
For data set [14], the target named is Platelet-derived growth factor receptor alpha (Homo sapiens, UniProt P16234).
Description: Inhibition of human PDGFRalpha
Data set [15] addresses Cyclin-dependent kinase 4 (Homo sapiens, UniProt P11802). The data set can be described thus: Inhibition of human CDK4.
The target in another data set is Insulin receptor (Homo sapiens, UniProt P06213). The data set can be described thus: Inhibition of human InsR.
In data set [16] the target is Fibroblast growth factor receptor 1 (Homo sapiens, UniProt P11362).
Description: Inhibition of human FGFR1
For data set [17], the system named is Calu-6. The data set is described as follows: Antiangiogenic activity against human Calu6 cells assessed as inhibition of cell proliferation by [3H]thymidine incorporation assay. It is filed as functional, cell-based.
The target in data set [18] is Vascular endothelial growth factor receptor 3 (Homo sapiens, UniProt P35916).
Description: Inhibition of human VEGFR3
Data set [19] can be described thus: Half life in NMRI nu/nu mouse at 50 mg/kg, po administered as single dose. Type of data set: ADME, organism-based. Also on record: dose 50 mg/kg, route oral. The settings on record: in vivo.
Data set [20] is described as follows: (§1) AUC in NMRI nu/nu mouse at 50 mg/kg, po administered as single dose. It is filed as ADME, organism-based, Plasma. Details: dose 50 mg/kg, route oral. The note with it: NMRI nu/nu, plasma.
Data set [21] is described as follows: Cmax in NMRI nu/nu mouse at 50 mg/kg, po administered as single dose. Type of data set: ADME, organism-based. Details: dose 50 mg/kg, route oral. The note with it: in vivo.
Data set [22] relates to CAKI-1. The data set can be described thus: Antitumor activity against human Caki1 cells xenografted NMRI nu/nu mouse assessed as inhibition of mean tumor volume growth at 100 mg/kg, po qd after 21 days relative to control. It is filed as functional.
The test system of a further data set is SK-OV-3. The data set is described as follows: Antitumor activity against human SKOV3 cells xenografted NMRI nu/nu mouse assessed as inhibition of mean tumor volume growth at 50 mg/kg, po qd after 21 days relative to control. Type of data set: functional.
The test system of the next data set is Mus musculus. The description is as §1. Type of data set: ADME, organism-based, Plasma. Also on record: dose 50 mg/kg, route oral. The note with it: in vivo.
For data set [23], the system named is Calu-6. The data set is described as follows: Antitumor activity against human Calu6 cells xenografted NMRI nu/nu mouse assessed as inhibition of mean tumor volume growth at 50 mg/kg, po qd after 21 days relative to control. Type of data set: functional.
Data set [24] concerns FaDu. The data set is described as follows: Antitumor activity against human FADU cells xenografted NMRI nu/nu mouse assessed as inhibition of mean tumor volume growth at 25 mg/kg, po qd after 21 days relative to control. It is filed as functional.
Data set [25] in a line: Clearance in NMRI nu/nu mouse at 50 mg/kg, po or 10 mg/kg, iv administered as single dose. It is filed as ADME, organism-based. The settings on record: in vivo.
Data set [26] deals with FaDu. The data set is described as follows: Antitumor activity against human FADU cells xenografted NMRI nu/nu mouse assessed as inhibition of mean tumor volume growth at 10 mg/kg, po qd after 21 days relative to control. Type of data set: functional.
A short description of data set [27]: Plasma concentration in NMRI nu/nu mouse at 50 mg/kg, po administered as single dose after 2 hrs. Type of data set: ADME, organism-based. Details: dose 50 mg/kg, route oral.
The nature of data set [28]: Plasma concentration in NMRI nu/nu mouse at 50 mg/kg, po administered as single dose after 24 hrs. It is filed as ADME, organism-based. Also on record: dose 50 mg/kg, route oral.
Data set [29] is described as follows: Antitumor activity against human PAC120 cells xenografted NMRI nu/nu mouse assessed as inhibition of mean tumor volume growth at 100 mg/kg, po qd after 21 days relative to control. Type of data set: functional.
Data set [30] can be described thus: Volume of distribution in NMRI nu/nu mouse at 50 mg/kg, po or 10 mg/kg, iv administered as single dose. It is filed as ADME, organism-based. The note with it: in vivo.
Data set [31] is described as follows: Oral bioavailability in NMRI nu/nu mouse at 50 mg/kg administered as single dose. It is filed as ADME, organism-based. The settings on record: in vivo.
The subject of data set [32] is CAKI-1. The data set can be described thus: Antitumor activity against human Caki1 cells xenografted NMRI nu/nu mouse assessed as inhibition of mean tumor volume growth at 10 mg/kg, po qd after 21 days relative to control. Type of data set: functional.
Another data set concerns HT-29. The data set can be described thus: Antitumor activity against human HT-29 cells xenografted NMRI nu/nu mouse assessed as inhibition of mean tumor volume growth at 100 mg/kg, po qd after 21 days relative to control. Type of data set: functional.
Data set [33] concerns CAKI-1. The data set is described as follows: Antitumor activity against human Caki1 cells xenografted NMRI nu/nu mouse assessed as inhibition of mean tumor volume growth at 50 mg/kg, po qd after 21 days relative to control. It is filed as functional.

Chain of Vascular endothelial growth factor receptor 2 (P35968 whole entry): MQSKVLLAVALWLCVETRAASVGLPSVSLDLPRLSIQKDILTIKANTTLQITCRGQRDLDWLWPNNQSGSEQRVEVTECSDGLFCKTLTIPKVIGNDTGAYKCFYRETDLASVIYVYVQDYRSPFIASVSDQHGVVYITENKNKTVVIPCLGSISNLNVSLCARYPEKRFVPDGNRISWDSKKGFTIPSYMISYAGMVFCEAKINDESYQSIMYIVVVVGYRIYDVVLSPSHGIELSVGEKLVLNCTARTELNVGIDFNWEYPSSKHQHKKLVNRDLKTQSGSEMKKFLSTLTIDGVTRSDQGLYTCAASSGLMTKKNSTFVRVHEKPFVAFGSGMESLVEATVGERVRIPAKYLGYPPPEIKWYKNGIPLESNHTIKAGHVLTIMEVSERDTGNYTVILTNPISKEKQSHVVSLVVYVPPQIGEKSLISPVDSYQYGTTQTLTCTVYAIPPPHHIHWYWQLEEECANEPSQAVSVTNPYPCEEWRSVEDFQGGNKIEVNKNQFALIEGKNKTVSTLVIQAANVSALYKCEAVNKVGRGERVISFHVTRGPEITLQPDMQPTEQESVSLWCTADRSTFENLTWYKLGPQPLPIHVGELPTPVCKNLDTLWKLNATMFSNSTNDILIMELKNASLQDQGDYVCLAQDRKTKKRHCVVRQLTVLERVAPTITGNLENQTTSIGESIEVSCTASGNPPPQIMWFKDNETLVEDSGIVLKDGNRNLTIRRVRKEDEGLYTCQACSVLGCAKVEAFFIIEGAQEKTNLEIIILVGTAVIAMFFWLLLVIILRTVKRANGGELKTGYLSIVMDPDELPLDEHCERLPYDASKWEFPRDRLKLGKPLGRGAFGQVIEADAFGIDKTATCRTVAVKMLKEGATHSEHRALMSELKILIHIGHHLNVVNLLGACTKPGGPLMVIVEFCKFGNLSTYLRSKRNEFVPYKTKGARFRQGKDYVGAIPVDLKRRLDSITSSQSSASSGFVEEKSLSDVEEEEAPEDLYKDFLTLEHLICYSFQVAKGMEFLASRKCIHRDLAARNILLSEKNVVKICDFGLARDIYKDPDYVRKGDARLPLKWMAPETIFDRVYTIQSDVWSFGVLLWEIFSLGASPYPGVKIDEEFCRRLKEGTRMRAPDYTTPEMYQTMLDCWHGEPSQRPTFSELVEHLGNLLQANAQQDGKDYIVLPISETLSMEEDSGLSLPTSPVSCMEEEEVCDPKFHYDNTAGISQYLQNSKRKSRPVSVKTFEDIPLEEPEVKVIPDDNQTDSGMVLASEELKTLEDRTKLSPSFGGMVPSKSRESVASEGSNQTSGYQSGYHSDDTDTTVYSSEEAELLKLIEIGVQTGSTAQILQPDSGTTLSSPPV
Chain of Serine/threonine-protein kinase PLK1 (P53350 whole entry): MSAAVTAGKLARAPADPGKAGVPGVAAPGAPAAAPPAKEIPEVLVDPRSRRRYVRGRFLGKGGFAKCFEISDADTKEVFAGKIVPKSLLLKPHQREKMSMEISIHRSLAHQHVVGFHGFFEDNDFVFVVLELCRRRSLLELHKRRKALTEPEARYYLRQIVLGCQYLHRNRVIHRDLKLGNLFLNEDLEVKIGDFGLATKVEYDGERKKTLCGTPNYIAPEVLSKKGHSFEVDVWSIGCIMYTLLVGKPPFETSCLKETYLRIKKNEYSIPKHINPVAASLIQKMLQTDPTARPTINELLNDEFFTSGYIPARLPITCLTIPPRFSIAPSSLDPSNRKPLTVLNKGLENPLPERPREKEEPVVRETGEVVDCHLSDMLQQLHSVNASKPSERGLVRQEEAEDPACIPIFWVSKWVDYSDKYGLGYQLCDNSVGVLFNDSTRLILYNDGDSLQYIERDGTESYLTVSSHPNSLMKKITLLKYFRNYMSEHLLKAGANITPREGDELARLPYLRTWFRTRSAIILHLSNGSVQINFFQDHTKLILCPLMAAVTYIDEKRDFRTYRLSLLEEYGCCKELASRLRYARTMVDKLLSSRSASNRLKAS
Chain of Vascular endothelial growth factor receptor 1 (P17948 whole entry): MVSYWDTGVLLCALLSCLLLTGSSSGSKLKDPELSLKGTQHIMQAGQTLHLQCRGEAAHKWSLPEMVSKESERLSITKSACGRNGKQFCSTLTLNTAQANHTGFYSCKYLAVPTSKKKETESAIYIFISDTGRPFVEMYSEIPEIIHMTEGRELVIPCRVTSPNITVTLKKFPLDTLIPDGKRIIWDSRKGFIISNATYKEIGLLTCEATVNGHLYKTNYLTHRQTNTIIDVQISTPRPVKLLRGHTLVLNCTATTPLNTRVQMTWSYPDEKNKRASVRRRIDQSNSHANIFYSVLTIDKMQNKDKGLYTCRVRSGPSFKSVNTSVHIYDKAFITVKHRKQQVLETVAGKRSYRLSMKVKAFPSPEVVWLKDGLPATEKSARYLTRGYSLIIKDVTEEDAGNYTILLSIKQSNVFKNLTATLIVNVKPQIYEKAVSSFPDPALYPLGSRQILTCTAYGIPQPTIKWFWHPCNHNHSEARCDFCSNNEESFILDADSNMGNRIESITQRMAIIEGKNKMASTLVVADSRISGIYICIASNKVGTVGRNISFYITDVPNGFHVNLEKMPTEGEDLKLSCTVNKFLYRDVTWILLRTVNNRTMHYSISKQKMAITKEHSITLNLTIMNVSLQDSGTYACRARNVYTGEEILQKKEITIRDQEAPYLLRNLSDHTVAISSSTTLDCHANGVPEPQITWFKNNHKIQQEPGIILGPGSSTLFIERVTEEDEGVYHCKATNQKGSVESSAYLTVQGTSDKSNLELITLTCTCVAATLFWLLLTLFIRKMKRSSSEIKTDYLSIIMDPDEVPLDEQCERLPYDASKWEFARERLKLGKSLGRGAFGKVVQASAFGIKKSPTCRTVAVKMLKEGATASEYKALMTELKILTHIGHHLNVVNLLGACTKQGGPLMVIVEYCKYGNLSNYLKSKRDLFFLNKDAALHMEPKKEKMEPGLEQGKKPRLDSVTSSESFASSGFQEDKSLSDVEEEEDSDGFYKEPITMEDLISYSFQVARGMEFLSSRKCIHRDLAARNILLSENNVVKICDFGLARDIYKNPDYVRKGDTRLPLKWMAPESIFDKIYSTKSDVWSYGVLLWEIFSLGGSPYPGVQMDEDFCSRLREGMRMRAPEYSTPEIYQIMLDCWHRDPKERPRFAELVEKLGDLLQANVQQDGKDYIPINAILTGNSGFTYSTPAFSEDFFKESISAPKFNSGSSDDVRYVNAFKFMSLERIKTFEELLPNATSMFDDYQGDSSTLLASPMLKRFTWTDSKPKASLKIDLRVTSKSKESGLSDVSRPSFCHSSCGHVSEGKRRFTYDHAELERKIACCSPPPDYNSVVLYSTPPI
Chain of Cyclin-dependent kinase 4 (P11802 whole entry): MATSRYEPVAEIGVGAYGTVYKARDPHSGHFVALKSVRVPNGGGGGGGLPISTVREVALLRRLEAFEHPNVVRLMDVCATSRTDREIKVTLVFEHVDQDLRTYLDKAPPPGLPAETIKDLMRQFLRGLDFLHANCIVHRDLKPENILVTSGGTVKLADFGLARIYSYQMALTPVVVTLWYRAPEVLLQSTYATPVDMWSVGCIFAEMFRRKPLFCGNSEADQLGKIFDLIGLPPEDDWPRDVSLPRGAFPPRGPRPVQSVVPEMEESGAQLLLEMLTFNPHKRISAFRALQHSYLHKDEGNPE
Chain of Epidermal growth factor receptor (P00533 whole entry): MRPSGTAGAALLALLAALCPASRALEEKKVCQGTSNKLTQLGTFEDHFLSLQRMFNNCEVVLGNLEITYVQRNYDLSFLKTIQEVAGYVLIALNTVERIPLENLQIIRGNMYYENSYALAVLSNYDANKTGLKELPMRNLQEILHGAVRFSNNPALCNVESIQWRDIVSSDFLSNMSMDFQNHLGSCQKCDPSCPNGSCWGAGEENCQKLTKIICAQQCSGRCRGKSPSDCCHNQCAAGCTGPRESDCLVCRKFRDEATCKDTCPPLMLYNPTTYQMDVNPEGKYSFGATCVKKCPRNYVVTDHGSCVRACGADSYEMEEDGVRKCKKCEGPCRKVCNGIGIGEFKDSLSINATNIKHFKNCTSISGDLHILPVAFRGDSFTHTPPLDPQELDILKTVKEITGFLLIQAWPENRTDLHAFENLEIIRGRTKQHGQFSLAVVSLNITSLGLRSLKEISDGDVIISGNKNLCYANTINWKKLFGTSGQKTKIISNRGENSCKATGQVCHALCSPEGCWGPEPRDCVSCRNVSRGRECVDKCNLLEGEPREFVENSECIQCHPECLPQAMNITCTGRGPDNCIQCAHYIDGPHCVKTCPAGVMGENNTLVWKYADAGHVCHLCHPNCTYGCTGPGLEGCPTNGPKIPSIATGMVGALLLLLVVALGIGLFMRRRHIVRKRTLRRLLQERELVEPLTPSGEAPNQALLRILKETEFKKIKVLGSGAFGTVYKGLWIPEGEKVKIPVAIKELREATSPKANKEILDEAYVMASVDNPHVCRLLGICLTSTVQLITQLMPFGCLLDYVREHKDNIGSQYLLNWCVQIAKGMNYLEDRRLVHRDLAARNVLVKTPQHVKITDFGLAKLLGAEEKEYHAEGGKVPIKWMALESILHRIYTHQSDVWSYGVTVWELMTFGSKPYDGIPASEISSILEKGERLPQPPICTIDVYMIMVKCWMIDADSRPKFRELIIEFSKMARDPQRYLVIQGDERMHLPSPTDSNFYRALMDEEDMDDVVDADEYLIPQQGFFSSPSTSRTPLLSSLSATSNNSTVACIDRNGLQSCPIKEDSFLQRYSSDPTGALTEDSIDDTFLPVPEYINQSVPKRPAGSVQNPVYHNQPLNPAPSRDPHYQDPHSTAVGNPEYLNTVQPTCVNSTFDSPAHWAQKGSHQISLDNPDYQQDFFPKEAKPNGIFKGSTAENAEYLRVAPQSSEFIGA
Description for HUVEC: Antiangiogenic activity in HUVEC assessed as inhibition of VEGF-induced cell proliferation by [3H]thymidine incorporation assay

Turning to `COC(=O)c1ccc2c(c1)NC(=O)/C2=C(\Nc1ccc(CN(C)C(=O)N(C)C)cc1)c1ccccc1`, the IC50 is more than 10000 nM in data set [1]; more than 10000 nM in data set [3]; 82 nM in data set [4]; 22 nM in the data set with HUVEC; more than 10000 nM in data set [8]; more than 10000 nM in data set [11]. In addition, the concentration for half-maximal inhibition (IC50) is 61 nM in data set [12]; more than 10000 nM in data set [13]; 20 nM in [14]; more than 10000 nM in [15]; more than 10000 nM against Insulin receptor; 50 nM in [16]. Moreover, in [18], the IC50 turned out to be 10 nM. Besides, the half-maximal effective concentration (EC50) in the data set on FaDu [2], in the data set on HeLa and with Calu-6 [17] was more than 1000 nM in each case. For the same molecule, the T/C in the data set on FaDu [5] amounted to 31%; in the data set on FaDu [7], 11%; in the data set with FaDu [10] it was 13%. Also, the concentration at 2 h in [6] turned out to be 1250 nM. The same molecule yielded a concentration at 24 h in [9] of 16 nM.
In turn, `COC(=O)c1ccc2c(c1)NC(=O)/C2=C(\Nc1ccc(CN2CCCCC2)cc1)c1ccccc1` had a half-life in [19] of 3.5 h. For the same molecule, the AUC in data set [20] stood at 5250 ng·h/mL. Further, the IC50 in data set [4] is 146 nM; in data set [12] it was 36 nM; in data set [14] it was 54 nM; in [16], 71 nM; in [18], 32 nM. The EC50 in the data set on HUVEC was 103 nM; in the data set on HeLa, more than 1000 nM. Also, the peak level in data set [21] (Cmax) was 952 ng/mL.
`COC(=O)c1ccc2c(c1)NC(=O)/C2=C(\Nc1ccc(N(C)C(=O)CN2CCN(C)CC2)cc1)c1ccccc1` [NINTEDANIB]: the T/C is 16% with CAKI-1 [22]; 19% in the data set on SK-OV-3; 24% in the data set with Calu-6 [23]; 14% in the data set with FaDu [5]; 46% with FaDu [24]; 15% with FaDu [7]. Moreover, the T/C with FaDu [10] was determined as 11%; with FaDu [26], 82%; in data set [29], 34%; in the data set with CAKI-1 [32], 71%; in the data set on HT-29 it was 16%; in the data set on CAKI-1 [33] it was 25%. The molecule further showed a half-life in data set [19] of 5 h. In the data set with Mus musculus, this molecule returned an AUC of 2.75 µM·h. The concentration giving a half-maximal response (EC50) in the data set with FaDu [2], with HeLa and in the data set with Calu-6 [17] was more than 1000 nM in each case. The figures for the IC50 (in [3]; with HUVEC) were more than 10000 nM and 10 nM, respectively. Moreover, the clearance in data set [25] was determined as 173 mL/min/kg. This molecule also returned a concentration at 2 h in data set [27] of 923 nM. In data set [28], this molecule had a concentration at 24 h of 8 nM. The molecule further returned a Cmax in data set [21] of 1090 nM. In data set [30], this molecule registered a Vd of 32 L/kg. In data set [31], this molecule gave a bioavailability of 45%.
As to `CCOC(=O)c1ccc2c(c1)NC(=O)/C2=C(\Nc1ccc(CN2CCCCC2)cc1)c1ccccc1`, the EC50 in the data set on HUVEC is 47 nM; in the data set with HeLa, more than 1000 nM. The same molecule gave a concentration for half-maximal inhibition (IC50) in data set [12] of 109 nM.
As for `NC(=O)c1ccc2c(c1)NC(=O)/C2=C(\Nc1ccc(CN2CCCCC2)cc1)c1ccccc1`, the IC50 in data set [1] was more than 10000 nM; in data set [3] it was more than 10000 nM; in data set [8] it was more than 10000 nM; in data set [11], more than 10000 nM; in [12], 763 nM; in data set [13], more than 10000 nM. Further, the IC50 (in [15]; against Insulin receptor) was more than 10000 nM each time. For the same molecule, the response in the data set with HUVEC was half-maximal at 342 nM (EC50).
As for `O=C1Nc2cc([N+](=O)[O-])ccc2/C1=C(/Nc1ccc(CN2CCCCC2)cc1)c1ccccc1`, the figures for the 50% effective concentration (EC50) in the data set with HUVEC and in the data set with HeLa were 60 nM and more than 1000 nM, respectively. The molecule also showed an IC50 in data set [12] of 7 nM.
